Data reported in PubChem BioAssay (NCI).
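Five compound concentrations were applied to cells in 96-well plates for 48 hours; endpoints were derived by simple linear interpolation of the resulting dose-response curve. TGI denotes the concentration required for complete inhibition of growth.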

Experiments:
Test in all cases: growth of human tumour cells (NCI), 48 h
[1] = system: OVCAR-3 ovarian
[2] = system: MALME-3M melanoma
[3] = system: OVCAR-8 ovarian
[4] = system: SN12C renal
[5] = system: MCF7 breast
[6] = system: MDA-N
[7] = system: HCT-15 colon
[8] = system: RXF 393 renal
[9] = system: K-562 leukemia
[10] = system: BT-549 breast
[11] = system: CAKI-1 renal
[12] = system: SF-295 CNS
[13] = system: NCI-H460 lung
[14] = system: HCC-2998 colon
[15] = system: SK-MEL-28 melanoma
[16] = system: MDA-MB-435
[17] = system: SW-620 colon
[18] = system: T-47D breast
[19] = system: SR leukemia
[20] = system: SK-MEL-5 melanoma
[21] = system: ACHN renal
[22] = system: NCI/ADR-RES ovarian
[23] = system: NCI-H23 lung
[24] = system: EKVX NSCLC
[25] = system: NCI-H522 lung
[26] = system: HT29 colon
[27] = system: KM12 colon
[28] = system: CCRF-CEM leukemia
[29] = system: UO-31 renal
[30] = system: UACC-257 melanoma
[31] = system: HCT-116 colon
[32] = system: 786-0 renal
[33] = system: M14 melanoma
[34] = system: IGROV1 ovarian
[35] = system: HOP-62 NSCLC
[36] = system: COLO 205 colon
[37] = system: MDA-MB-231 breast
[38] = system: SK-OV-3 ovarian
[39] = system: HL-60(TB) leukemia
[40] = system: A549 NSCLC
[41] = system: SF-268 CNS
[42] = system: LOX IMVI melanoma
[43] = system: HS 578T breast
[44] = system: RPMI-8226 leukemia
[45] = system: SNB-19 CNS
[46] = system: OVCAR-4 ovarian
[47] = system: SNB-75 CNS
[48] = system: SF-539 CNS
[49] = system: U251 CNS
[50] = system: A498 renal
[51] = system: SK-MEL-2 melanoma
[52] = system: PC-3 prostate
[53] = system: UACC-62 melanoma
[54] = system: HOP-92 NSCLC
[55] = system: NCI-H226 lung
[56] = system: TK-10 renal
[57] = system: OVCAR-5 ovarian
[58] = system: MOLT-4 leukemia
[59] = system: DU-145 prostate

O=C(O)c1ccc(Cc2ccccc2C(=O)O)cc1
TGI [1]: > 100 µM
TGI [2]: > 100 µM
TGI [3]: > 100 µM
TGI [4]: > 100 µM
TGI [5]: > 100 µM
TGI [6]: > 100 µM
TGI [7]: > 100 µM
TGI [8]: > 100 µM
TGI [9]: > 100 µM
TGI [10]: > 100 µM
TGI [11]: > 100 µM
TGI [12]: > 100 µM
TGI [13]: > 100 µM
TGI [14]: > 100 µM
TGI [15]: > 100 µM
TGI [16]: > 100 µM
TGI [17]: > 100 µM
TGI [18]: > 100 µM
TGI [19]: > 100 µM
TGI [20]: > 100 µM
TGI [21]: > 100 µM
TGI [22]: > 100 µM
TGI [23]: > 100 µM
TGI [24]: > 100 µM
TGI [25]: > 100 µM
TGI [26]: > 100 µM
TGI [27]: > 100 µM
TGI [28]: > 100 µM
TGI [29]: > 100 µM
TGI [30]: > 100 µM
TGI [31]: > 100 µM
TGI [32]: > 100 µM
TGI [33]: > 100 µM
TGI [34]: > 100 µM
TGI [35]: > 100 µM
TGI [36]: > 100 µM
TGI [37]: > 100 µM
TGI [38]: > 100 µM
TGI [39]: > 100 µM
TGI [40]: > 100 µM
TGI [41]: > 100 µM
TGI [42]: > 100 µM
TGI [43]: > 100 µM
TGI [44]: > 100 µM
TGI [45]: > 100 µM
TGI [46]: > 100 µM
TGI [47]: > 100 µM
TGI [48]: > 100 µM
TGI [49]: > 100 µM
TGI [50]: > 100 µM
TGI [51]: > 100 µM
TGI [52]: > 100 µM
TGI [53]: > 100 µM
TGI [54]: > 100 µM
TGI [55]: > 100 µM
TGI [56]: > 100 µM
TGI [57]: > 100 µM

[N-]=[N+]=NC1=C(C(=O)c2ccccc2)C(=O)c2cccc3cccc1c23
TGI [1]: > 100 µM
TGI [2]: > 100 µM
TGI [3]: > 100 µM
TGI [4]: > 100 µM
TGI [5]: > 100 µM
TGI [6]: > 100 µM
TGI [8]: 71 µM
TGI [9]: > 100 µM
TGI [10]: > 100 µM
TGI [11]: > 100 µM
TGI [12]: > 100 µM
TGI [15]: > 100 µM
TGI [16]: > 100 µM
TGI [17]: > 100 µM
TGI [18]: > 100 µM
TGI [19]: 77.6 µM
TGI [20]: > 100 µM
TGI [21]: > 100 µM
TGI [22]: > 100 µM
TGI [23]: > 100 µM
TGI [24]: 89.2 µM
TGI [25]: 81.5 µM
TGI [26]: > 100 µM
TGI [58]: > 100 µM
TGI [27]: > 100 µM
TGI [28]: > 100 µM
TGI [29]: > 100 µM
TGI [30]: > 100 µM
TGI [31]: > 100 µM
TGI [32]: > 100 µM
TGI [33]: > 100 µM
TGI [34]: 88.5 µM
TGI [35]: 62 µM
TGI [36]: > 100 µM
TGI [37]: 87.2 µM
TGI [38]: > 100 µM
TGI [40]: > 100 µM
TGI [41]: 36.2 µM
TGI [43]: 61.4 µM
TGI [44]: > 100 µM
TGI [45]: > 100 µM
TGI [46]: > 100 µM
TGI [47]: 33.4 µM
TGI [48]: > 100 µM
TGI [49]: > 100 µM
TGI [51]: 69.6 µM
TGI [52]: > 100 µM
TGI [53]: > 100 µM
TGI [54]: > 100 µM
TGI [55]: > 100 µM
TGI [56]: > 100 µM
TGI [57]: > 100 µM

COc1oc(C(=O)NC2CCCCC2)c(-c2ccc(Cl)cc2)c1S(=O)(=O)c1ccccc1
TGI [1]: 3.59 µM
TGI [2]: > 45.9 µM
TGI [3]: > 19.8 µM
TGI [4]: > 46.2 µM
TGI [5]: > 100 µM
TGI [6]: > 100 µM
TGI [7]: > 100 µM
TGI [8]: 9.76 µM
TGI [9]: > 52.4 µM
TGI [10]: > 22.1 µM
TGI [11]: 10.7 µM
TGI [12]: > 62 µM
TGI [13]: > 36.1 µM
TGI [14]: > 100 µM
TGI [15]: > 100 µM
TGI [16]: 28.9 µM
TGI [17]: > 100 µM
TGI [18]: > 100 µM
TGI [19]: > 25.3 µM
TGI [20]: > 100 µM
TGI [21]: > 100 µM
TGI [22]: 8.42 µM
TGI [23]: > 25.5 µM
TGI [24]: > 30.9 µM
TGI [25]: 2.94 µM
TGI [26]: 5.42 µM
TGI [58]: > 75.2 µM
TGI [27]: 25.2 µM
TGI [28]: 4.66 µM
TGI [29]: 3.22 µM
TGI [31]: > 100 µM
TGI [32]: 3.59 µM
TGI [33]: > 100 µM
TGI [34]: 3.35 µM
TGI [35]: 22 µM
TGI [36]: 44.9 µM
TGI [38]: > 100 µM
TGI [39]: 6.4 µM
TGI [40]: > 100 µM
TGI [41]: 10.8 µM
TGI [42]: 7.54 µM
TGI [43]: 68.6 µM
TGI [59]: > 74.4 µM
TGI [44]: 5.59 µM
TGI [45]: > 100 µM
TGI [46]: 3.51 µM
TGI [47]: > 100 µM
TGI [48]: 14.4 µM
TGI [49]: 7.61 µM
TGI [50]: 4.08 µM
TGI [51]: 39 µM
TGI [52]: > 41.3 µM
TGI [53]: 72.2 µM
TGI [54]: 3.06 µM
TGI [55]: > 100 µM
TGI [56]: > 89.1 µM
TGI [57]: > 100 µM
